Measured values published in patent publication US20030100508A1, “Carbohydrate epitope mimic compounds and uses thereof” (priority 1999, published 2003).

Columns and labels:
[1] = system: neural cell adhesion to laminin; details: Hall et al. 1995; cited from earlier work
[2] = Hall et al. 1995; cited from earlier work
L2-412 antibody [3] = assay: Phage ELISA: binding of phage clones to coated L2-412 antibody; set-up: species or system rat; details: 100 μl culture supernatant; antibody 1 μg/ml coating
Method: (§1) Comparative binding of the HNK-1 selected phage/positive clones versus the L2-412 selected 15-15 phage to bound L2-412 antibody, IgG, HNK-1, and IgM is shown FIG. 14. Supernatant (100 μl) from an overnight culture of bacteria secreting phade were incubated with coated antibodies (100 μl of 1 μg/ml useded for coating) and detected with HRP-coupled anti-phage antibody.
Individual colonies resistant to tetracycline and kanamycin were grown in LB containing 20 μg/mil tetracycline in 96-wells plates (Nunc) overnight at 37° C. (300 μl/well), then centrifuged 10 minutes at 3000 rpm in Jouan centrifuge and the supernatant (100 μl) was incubated for 2 hr in another 96-well plate previously coated with mAbL2-412 (100 μl, μg/l ml overnight at 4° C.) and blocked by incubation for 2 hours with PBS-0.5% (w/v) BSA. After washing 5 times, the binding of the phages was detected by incubation with HRP-conjugated anti-M13 antibody (Pharmacia, Biotech.) for 1 hour at a dilution of 1:2000. […] The absorbance of the colored reaction product was determined at 405 nm in a Multiscan TitertekPlus (Flow, Switzerland). […]

HNK-1 antibody = assay: Phage ELISA: binding of phage clones to coated HNK-1 antibody; set-up: species or system mouse; details: 100 μl culture supernatant; antibody 1 μg/ml coating
Method: as §1
Individual colonies resistant to tetracycline and kanamycin were grown in LB containing 20 μg/mil tetracycline in 96-wells plates (Nunc) overnight at 37° C. (300 μl/well), then centrifuged 10 minutes at 3000 rpm in Jouan centrifuge and the supernatant (100 μl) was incubated for 2 hr in another 96-well plate previously coated with mAbL2-412 (100 μl, μg/l ml overnight at 4° C.) and blocked by incubation for 2 hours with PBS-0.5% (w/v) BSA. After washing 5 times, the binding of the phages was detected by incubation with HRP-conjugated anti-M13 antibody (Pharmacia, Biotech.) for 1 hour at a dilution of 1:2000. The peroxidase reaction was started by the addition of 100 μl developer containing 0.01% hydrogen peroxide and 0.1% (w/v) 2,2′-azino-bis(3-ethylbenzthiazoline-6-sulfonic acid)-diammonium salt (ABTS, Boehringer Mannheim) in HRP buffer (0.1M sodium acetate, 0.05M NaH2PO4, pH adjusted to 4.2 with acetic acid). The absorbance of the colored reaction product was determined at 405 nm in a Multiscan TitertekPlus (Flow, Switzerland). […] Two individual colonies were picked and re-assayed for positivity towards mAb L2-412. Positive single colonies were stored in 40% glycerol at −80° C.

L2-412 antibody [4] = assay: Competition ELISA: binding of mAb L2-412 to immobilized L2/HNK-1 glycolipids; set-up: species or system rat
Method: FIG. 2A depicts competition of the L2-412 antibody to immobilized L2/HNK-1 glycolipids by various inhibitors: positive phage (denoted phage 15-15), negative phage (denoted neg. control phage), free peptide (denoted peptide 15-15) and SO3-sugar. L2-412 was preincubated with a stepwise 2-fold dilution series of the free peptide (starting concentration 2.2 mM), SO3-sugar (starting concentration 5 mM), positive phage and negative phage (starting concentration 10^12TUs/ml), and added to the coated glycolipid. After incubation and washing, the bound antibody was detected with HRP anti-rat antibody.
FIG. 2B depicts the percentage inhibition of L2-412 antibody to immobilized L2/HNK-1 glycolipids by various inhibitors. The percentage is calculated for the point in FIG. 2A with the highest concentration of inhibitor. […]
Microtiter plates (Nunc) were coated with the L2/HNK-1 glycolipids (50 μl, 1 μg/ml, dissolved in EtOH) and allowed to dry overnight. While blocking the wells for 2 hours with 0.5% (w/v) fatty-acid-free BSA in PBS, a limiting concentration of ^L2-412, previously determined, was pre-incubated with successive 2-fold dilutions of the inhibitor, starting at a concentration of 2.2 mM for the free peptide, 5 mM for the SO3 sugar and 10^12 positive and negative phages (the negative phages were cloned from the unbound fraction of the first round of screening). […]

[5] = system: embryonic neural cell cultures; assay: Embryonic neural cell cultures treated with L1 and chemotherapeutic agents; format: cell-based; details: with cisplatin and vincristin; experiments not detailed
Source text: Thus, in view of the recognized and previously described role of HNK-1 expressing cells, natural killer cells, in the surveillance of tumors and virus-infected cells, the carbohydrate epitope mimic peptides can be utilized in enhancing, activating or otherwise modulating the surveillance and clearance of tumors and virus-infected cells. The carbohydrate epitope mimic peptides of the present invention may also have use in the protection of cells, particularly neural cells from chemotherapeutic agents. In experiments not specifically detailed in the Examples herein, the inventors treated embryonic neural cell cultures with a combination of the neural cell adhesion molecule L1 and chemotherapeutic agents, including cisplatin and vincristin. The cell cytopathic effects of the chemotherapeutic agents were reduced in te presence of L1. L1expresses the HNK-1 epitope and a good portion of L1 homophilic binding is HNK-1 mediated. Thus, it is contemplated that the L2/HNK-1 epitope mimic peptide of the present invention can be utilized in the protection of cells, particularly neural cells from chemotherapeutic agents. Untoward cellular cytotoxic effects and problematic symptoms associated therewith are a recognized and limiting side effect of chemotherapy, inherently limiting the dose of the agents which can be administered.

laminin = molecular target: T1, laminin (Mus musculus, UniProt P19137); assay: Binding of phage to immobilized laminin; details: laminin 10 μg/ml coating; anti-M13 HRP detection
T1 construct: purchased Gibco/BRL
Method: FIG. 5 depicts binding of phage 15-15 and control phage UBR2 to immobilized laminin (100 μl of 10 μg/ml used for coating). Bound phage were detected by HRP-conjugated anti-M13 antibody. The results are presented as OD405 vs. relative concentration of the phage preparation (a relative concentration of 100 corresponds to […] phage).

[6] = system: oligodendrocytes in mixed cerebellar cultures; assay: Oligodendrocyte cultures treated with HIV gp120 and HNK-1 epitope mimic peptide, RIP immunostaining; format: cell-based, rat
[7] = system: oligodendrocytes in mixed cerebellar cultures; assay: as above; format: cell-based, rat; remark: listed apart in the source
Method: For these experiments, mixed neural cultures were isolated from rat cerebellum. Briefly, tissue was harvested from postnatal day five rat pups, dissociated and plated on poly-lysine coated 24 well cluster plates in Neural basal medium plus B27 supplement, 1% FBS and penicillin and streptomycin. HNK-1 epitope mimic peptide 8 mer (FLHTRLFV) (SEQ ID NO:8) (1 mM, 100 nM or 10 nM) was added to wells at the time of plating. Three days later, 1 nM gp120 was preincubated with 1 mM, 100 nM or 10 nM HNK-1 peptidomimetic for 1 hour at 37° C. After one hour, gp120 or gp120 plus HNK-1 peptidomimetic was added to mixed cerebellar cultures in sets of 6 replicates. Four days later, cultures were fixed and immunostained with the oligodendrocyte specific antibody marker, RIP. Data was analyzed by counting the number of RIP positive cells in twenty 20×-microscope fields. In addition, the number of RIP positive cells, mature oligodendrocytes with extensive intact membrane sheaths were counted. The cells are depicted in FIG. 20.

[8] = system: Ox42 (MAC 1), TNF and GFAP expression; assay: gp120-mediated inflammation and neuropathy, sciatic nerve Oxycel delivery, spinal cord immunohistochemistry; format: in vivo, rat
Source text: Herzberg et al coated the sciatic nerve of rats with oxidized cellulose saturated with gp120 or BSA as control. Persistant hyperalgesia and allodynia were observed throughout a one month testing period in rats treated with gp120. […] This system was utilized to assess the affect of the 8-mer peptide on gp120-mediated inflammation and neuropathy, using Ox42 (MAC 1), TNF and GFAP expression as immunohistochemical markers.
Ox42 (also called MACl) is a general marker for immune/inflammatory activation of the central nervous system (expressed by microglia—when those proliferate and/or extend their processes). If Ox42 marker is present two weeks, and particularly four weeks, after initial neural injury, this indicates a chronic problem. An ongoing inflammatory process in the CNS is correlative of neuropathy. TNF is a cytokine indicating an inflammatory process, and in this case neuronal degeneration. It's expression increases in the CSF of pateints with HIV related neuropathy and is thought to play a role in the degenerative process in these patients (see “role of immune activation and cytokine expression in HIV-1 associated neurologic disease” bay Masaru Yoshioka Walter G Bradley, Paul Shapshak, Isao Nagano, Rene V. Stewart, Ke-Qin Xin, Ashok Srivastava, and Shozo Nakamura in Advance in Neuroimmunology) Vol.5 pp 335-358, 1995. GFAP is a marker for a general activation of astrocytes in the spinal cord and is expressed following damage to the CNS.
Male Sprague Dawley rats weighing 200-225 g were used.
The left sciatic nerve was isolated by blunt dissection, and wrapped with oxidized cellulose (Oxycel, Becton Dickinson) saturated with 250 ul sterile saline containing 400 ng of recombinant gp120 protein alone, or in the presence of 43 ng of the 8-mer L2/HNK-1 mimic peptide (corresponding to a 10×excess […] on a mole-per-mole basis), utilizing the Oxycel delivery method of Eliav et al (Eliav et al (1999) Pain 83(2): 169-82. Eight animals were treated with gp120 alone and eight animals were treated with gp120 and 43 ng peptidomimetic compound.
Animals were euthanized (overdose of xylazine/ketamine) at two and four weeks following surgery and perfused transcardially with ice cold saline followed by 4% paraformaldehyde.
Spinal cords were harvested and cryoprotected overnight at 30% sucrose solution 10 Sections of 40 um thickness from the lumbar enlargement from each animal were thaw mounted onto gelatized slides and stained immunohistochemically for Ox-42 (MACl), TNF and GFAP.

[9] = molecular target: monoclonal antibody L2-412; assay: competition ELISA: L2-412 preincubated with inhibitor (2-fold dilutions from 2.2 mM), then binding to immobilized L2/HNK-1 glycolipid
[10] = gp120 (1 nM) + 10 nM peptide, preincubated
[11] = gp120 (1 nM) + 1 uM peptide, preincubated
[12] = gp120 (1 nM) + 100 nM peptide, preincubated
[13] = gp120 400 ng + 43 ng 8-mer peptide on sciatic nerve, lumbar spinal cord

## KGVSSRSYVGCIKNLEISRST
[1]
  inhibition of HNK-1-mediated neural cell adhesion to laminin: inhibited HNK-1-mediated neural cell adhesion to laminin
[2]
  binding to the L2/HNK-1 carbohydrate: bound to the L2/HNK-1 carbohydrate in a concentration-dependent manner

## S L A P Y S L R I F V L F G G A (SLAPYSLRIFVLFGGA) [Peptide 15H233]
L2-412 antibody [3]
  binding of phage to coated L2-412 antibody: bind L2-412 and HNK-1, nearly to the same extent
HNK-1 antibody
  binding of phage to coated HNK-1 antibody: bind L2-412 and HNK-1, nearly to the same extent

## T R L F R V P V F R L G D F W (TRLFRVPVFRLGDFW) [Peptide 15H92]
L2-412 antibody [3]
  binding of phage to coated L2-412 antibody: bind L2-412 and HNK-1, nearly to the same extent
HNK-1 antibody
  binding of phage to coated HNK-1 antibody: bind L2-412 and HNK-1, nearly to the same extent

## F L H T R L F V S D W Y H T (FLHTRLFVSDWYHT; m13 library) [Peptide 15-15]
L2-412 antibody [4]; highest inhibitor concentration (free peptide 2.2 mM, SO3-sugar 5 mM, phage 10^12 TUs/ml), no inhibitor = 0%
  inhibition of L2-412 binding to immobilized L2/HNK-1 glycolipids: 30-35%

## L1: neural cell adhesion molecule L1 [Peptide L1]
[5]
  cell cytopathic effects of chemotherapeutic agents: reduced

## S G R G F C C W S N D S A L S [negative phage, reference compound]
L2-412 antibody [4]; phage starting at 10^12
  inhibitory effect on L2-412 binding to immobilized L2-glycolipids: did not show this inhibitory effect

## F L H T R L F V S D W Y H T P [phage 15-15]
laminin
  binding of phage to immobilized laminin: bind to laminin in a concentration dependent manner
HNK-1 antibody
  binding of phage to coated HNK-1 antibody: does not bind HNK-1 antibody to a significant extent

## F L H T R L F V (FLHTRLFV; m13 library) [Consensus peptide]
[6]; 1 nM gp120 preincubated with 1 uM HNK-1 epitope mimic peptide
  fluorescence microscopy of RIP positive oligodendrocytes: indistinguishable from mature RIP positive cells observed in cultures treated with the HNK-1 epitope mimic peptide only
[6]; 1 uM peptide
  # mature RIP + cells/20 fields: 13.33 cells/20 fields
  Total # RIP + cells/20 fields: 62.67 cells/20 fields
[6]; 10 uM peptide
  # mature RIP + cells/20 fields: 22.33 cells/20 fields
  Total # RIP + cells/20 fields: 75.83 cells/20 fields
[6]; [10]
  Total # RIP + cells/20 fields: 73.83 cells/20 fields
[6]; [11]
  Total # RIP + cells/20 fields: 76.83 cells/20 fields
[7]; 10 nM HNK-1 epitope mimic peptide
  fluorescence microscopy of RIP positive oligodendrocytes: Numerous mature RIP positive oligodendrocytes with extensive membrane sheaths were observed
[7]; 100 nM peptide
  # mature RIP + cells/20 fields: 16.33 cells/20 fields
  Total # RIP + cells/20 fields: 76.67 cells/20 fields
[7]; [10]
  # mature RIP + cells/20 fields: 8.833 cells/20 fields
[7]; [12]
  # mature RIP + cells/20 fields: 11.17 cells/20 fields
  Total # RIP + cells/20 fields: 69.83 cells/20 fields
[7]; [11]
  # mature RIP + cells/20 fields: 12.33 cells/20 fields
[7]; summary of Table 6
  effect on mature oligodendrocytes and gp120-associated myelin destruction: increases the number of mature oligodendrocytes and blocks myelin destruction associated with gp 120 treatment
[8]; [13]
  GFAP immunoreactive area: 8745 pixels
  Ox42 immunoreactive area: 1557 pixels
  TNF immunoreactive area: 1478 pixels
[8]; gp120 + peptide versus Oxycel alone
  effect on gp120-induced immunoreactivity: brings those values back to the same level as with Oxycel alone
[8]; gp120 in combination with the HNK-1 peptide
  cellular morphology of spinal cord sections, light microscopy: This cellular morphology was not observed

## FLHTRLFVSDWYHT [peptide 15-15 (free synthetic peptide …)]
[9]
  percent inhibition: 30 to 35%
